A value given as a limit tells only on which side of the number the result lay.

One assay concerns the target human PDE1B (Homo sapiens (Human), UniProt Q01064). In words: PDE1B inhibitory assay (IMAP TR-FRET). To be noted: PDE1B pIC50, negative log of half-maximal molar inhibitory concentration; 200 nM FAM-cAMP, Calmodulin, CaCl2.
Experimental: PDE1B inhibition was determined by an IMAP TR-FRET assay.
After a brief centrifugation, the plates were incubated for 30 minutes at room temperature. The assay was terminated by adding 5 μL IMAP binding reagent/Tb complex (Molecular Devices, Sunnyvale, Calif.) to each well.
Plates were incubated 1 hour at room temperature and read on a Viewlux multimode plate reader (Perkin Elmer). The instrument was set to excite using the DUG11 filter and measure using 490/10 nm and 520/10 nm filters. Ratios of acceptor and donor were then calculated.
For IC50 calculations, the values of % efficacy versus a series of compound concentrations were then plotted using non-linear regression analysis of sigmoidal dose-response curves generated with the equation Y=B+(T−B)/1+10((Log EC50−X)×Hill Slope), where Y=percent activity, B=minimum percent efficacy, T=maximum percent efficacy, X=logarithm of compound and Hill Slope=slope factor or Hill coefficient. The IC50 value was determined by the concentration causing a half-maximal percent efficacy.
For the compound `COc1ccc(Cn2c(=O)n3ncnc3c3cc(N4CCN(S(C)(=O)=O)CC4)cnc32)cc1` [Example 203], the IC50 fell in the range of 100 to 1000 nM.

`COc1ccc(Cn2c(=O)n3ncnc3c3cc(CCNC(=O)OCc4ccccc4)cnc32)cc1` [Example 204, Benzyl 2-(6-(4-Methoxybenzyl)-5-oxo-5,6-dihydropyrido[3,2-e][1,2,4]triazolo[1,5-c]pyrimidin-9-yl)ethylcarbamate] displayed an IC50 of 100 to 1000 nM.

In turn, `COc1ccc(Cn2c(=O)n3ncnc3c3cc(CN4CCOCC4)cnc32)cc1` [Example 205] came in with an IC50 of 100 to 1000 nM.

As to `COc1ccc(Cn2c(=O)n3ncnc3c3cc(CN4CCCCC4)cnc32)cc1` [Example 206], the 50% inhibitory concentration (IC50) was in the range of 100 to 1000 nM.

`COc1ccc(Cn2c(=O)n3ncnc3c3cc(CN4CCSCC4)cnc32)cc1` [Example 207] yielded an IC50 of 100 to 1000 nM.

On to `O=c1n(Cc2ccc(Cl)cc2)c2ncc(CN3CCOCC3)cc2c2ncnn12` [Example 208], for which the IC50 fell in the range of 100 to 1000 nM.

Take `O=c1n(Cc2ccc(Cl)cc2)c2ncc(CN3CCCCC3)cc2c2ncnn12` [Example 209]: the IC50 lay within 1000 to 10000 nM.

`C[C@@H]1CN(Cc2cnc3c(c2)c2ncnn2c(=O)n3Cc2ccc(Cl)cc2)C[C@H](C)O1` [Example 210] had an IC50 of 100 to 1000 nM.

For `COc1ccc(Cn2c(=O)n3ncnc3c3cc(CCN)cnc32)cc1` [Example 211, 9-(2-Aminoethyl)-6-(4-methoxybenzyl)pyrido[3,2-e][1,2,4]triazolo[1,5-c]pyrimidin-5(6H)-one], the 50% inhibitory concentration (IC50) fell in the range of 1000 to 10000 nM.

Regarding `COc1ccc(Cn2c(=O)n3ncnc3c3cc(CCNC4CCOCC4)cnc32)cc1` [Example 212, 6-(4-Methoxybenzyl)-9-(2-(tetrahydro-2H-pyran-4-ylamino)ethyl)pyrido[3,2-e][1,2,4]triazolo[1,5-c]pyrimidin-5(6H)-one], the IC50 lay in the range of 1000 to 10000 nM.

On to `COc1ccc(Cn2c(=O)n3ncnc3c3cc(CCNC(C)c4ccccc4)cnc32)cc1` (stereo not shown) [Example 213], for which the half-inhibitory concentration (IC50) lay within 100 to 1000 nM.

Compound `C=Cc1cnc2c(c1)c1ncnn1c(=O)n2Cc1ccc(OC)cc1` [Example 214, 6-(4-Methoxybenzyl)-9-vinylpyrido[3,2-e][1,2,4]triazolo[1,5-c]pyrimidin-5(6H)-one] yielded a 50% inhibitory concentration (IC50) of 100 to 1000 nM.

On to `COCOCc1cnc2c(c1)c1ncnn1c(=O)n2Cc1ccc(OC)cc1` [Example 215], for which the IC50 was 100 to 1000 nM.

`C=C(OCC)c1cnc2c(c1)c1ncnn1c(=O)n2Cc1ccc(OC)cc1` [Example 216] had an IC50 of 100 to 1000 nM.

Take `COc1ccc(Cn2c(=O)n3ncnc3c3cc(CO)cnc32)cc1` [Example 217, 9-(Hydroxymethyl)-6-(4-methoxybenzyl)pyrido[3,2-e][1,2,4]triazolo[1,5-c]pyrimidin-5(6H)-one]: the IC50 is 100 to 1000 nM.

`COc1ccc(Cn2c(=O)n3ncnc3c3cc(CN4CC5CC4CO5)cnc32)cc1` (stereo not shown) [Example 218, 9-(2-Oxa-5-azabicyclo[2.2.1]heptan-5-ylmethyl)-6-(4-methoxybenzyl)pyrido[3,2-e][1,2,4]triazolo[1,5-c]pyrimidin-5(6H)-one]: the IC50 fell in the range of 100 to 1000 nM.

As for `COc1ccc(Cn2c(=O)n3ncnc3c3cc(CN(C)C)cnc32)cc1` [Example 219], the IC50 fell in the range of 1000 to 10000 nM.

`COc1ccc(Cn2c(=O)n3ncnc3c3cc(CN4CCN(C)CC4)cnc32)cc1` [Example 221] showed a half-inhibitory concentration (IC50) of 100 to 1000 nM.

`COc1ccc(Cn2c(=O)n3ncnc3c3cc(CN4CCOC(C)(C)C4)cnc32)cc1` [Example 223]: the concentration for half-maximal inhibition (IC50) fell in the range of 100 to 1000 nM.

As to `COc1ccc(Cn2c(=O)n3ncnc3c3cc(CN4CC(F)(F)OC(F)(F)C4)cnc32)cc1` [Example 226], the half-maximal inhibitory concentration (IC50) lay in the range of 100 to 1000 nM.

In turn, `COc1ccc(Cn2c(=O)n3ncnc3c3cc(CN4CC5CCC(C4)O5)cnc32)cc1` [Example 227] displayed an IC50 of 100 to 1000 nM.

The compound `COc1ccc(Cn2c(=O)n3ncnc3c3cc(CN4CCOCC4C)cnc32)cc1` (stereo not shown) [Example 230] yielded an IC50 of 100 to 1000 nM.

`COc1ccc(Cn2c(=O)n3ncnc3c3nc(CN4C[C@@H](C)O[C@@H](C)C4)cnc32)cc1` [Example 231] gave a half-inhibitory concentration (IC50) of 100 to 1000 nM.

In turn, `COc1ccc(Cn2c(=O)n3ncnc3c3cc(CN4CCCN(C)CC4)cnc32)cc1` [Example 232] had a half-maximal inhibitory concentration (IC50) of 1000 to 10000 nM.

The compound `COc1ccc(Cn2c(=O)n3ncnc3c3cc(CN4CCCOCC4)cnc32)cc1` [Example 233] returned an IC50 of 100 to 1000 nM.

As to `COc1ccc(Cn2c(=O)n3ncnc3c3cc(CN4CCCN(C(C)=O)CC4)cnc32)cc1` [Example 234], the IC50 fell in the range of 100 to 1000 nM.

For the compound `COc1ccc(Cn2c(=O)n3ncnc3c3cc(CN(C)C4CCCCC4)cnc32)cc1` [Example 235], the half-inhibitory concentration (IC50) was 1000 to 10000 nM.

As to `COc1ccc(Cn2c(=O)n3ncnc3c3cc(CN4CCC(OC)CC4)cnc32)cc1` [Example 236], the 50% inhibitory concentration (IC50) lay in the range of 100 to 1000 nM.

In turn, `COc1ccc(Cn2c(=O)n3ncnc3c3cc(CN(C)C4CCOCC4)cnc32)cc1` [Example 237] yielded an IC50 of 1000 to 10000 nM.

For `COCCN1CCN(Cc2cnc3c(c2)c2ncnn2c(=O)n3Cc2ccc(OC)cc2)CC1` [Example 238], the concentration for half-maximal inhibition (IC50) was 1000 to 10000 nM.

With `COCCN(Cc1cnc2c(c1)c1ncnn1c(=O)n2Cc1ccc(OC)cc1)C(C)C` [Example 239], the IC50 lay within 100 to 1000 nM.

`COc1ccc(Cn2c(=O)n3ncnc3c3ncc(CN4CCN(C)CC4)cc32)cc1` [Example 240] came in with a concentration for half-maximal inhibition (IC50) of 1000 to 10000 nM.

`COc1ccc(Cn2c(=O)n3ncnc3c3ncc(CN4CCOCC4)cc32)cc1` [Example 241] displayed an IC50 of 1000 to 10000 nM.

The compound `COc1ccc(Cn2c(=O)n3ncnc3c3ncc(CN4CCCCC4)cc32)cc1` [Example 242] gave a half-inhibitory concentration (IC50) of 1000 to 10000 nM.

For `COc1ccc(Cn2c(=O)n3ncnc3c3ncc(CN4CCSCC4)cc32)cc1` [Example 243], the half-maximal inhibitory concentration (IC50) fell in the range of 1000 to 10000 nM.

In the case of `COc1ccc(Cn2c(=O)n3ncnc3c3ncc(CN4C[C@@H](C)O[C@@H](C)C4)cc32)cc1` [Example 244], the IC50 fell in the range of 1000 to 10000 nM.

Regarding `COCCN(C)Cc1cnc2c(c1)c1ncnn1c(=O)n2Cc1ccc(OC)cc1` [Example 245], the IC50 lay within 100 to 1000 nM.

`COc1ccc(Cn2c(=O)n3ncnc3c3cc(CN4C[C@@H](C)OC[C@H]4C)cnc32)cc1` [Example 248]: the IC50 was 100 to 1000 nM.

In turn, `COc1ccc(Cn2c(=O)n3ncnc3c3cc(CN4CCNCC4)cnc32)cc1` [Example 249, 6-(4-Methoxybenzyl)-9-(piperazin-1-ylmethyl)pyrido[3,2-e][1,2,4]triazolo[1,5-c]pyrimidin-5(6H)-one] yielded an IC50 of 1000 to 10000 nM.

`COc1ccc(Cn2c(=O)n3ncnc3c3cc(CN4C[C@@H](C)N[C@@H](C)C4)cnc32)cc1` [Example 250] came in with an IC50 of 1000 to 10000 nM.

On to `COc1ccc(Cn2c(=O)n3ncnc3c3cc(CN4CCN(CC5CCOC5)CC4)cnc32)cc1` (stereo not shown) [Example 251, 6-(4-Methoxybenzyl)-9-((4-((tetrahydrofuran-3-yl)methyl)piperazin-1-yl)methyl)pyrido[3,2-e][1,2,4]triazolo[1,5-c]pyrimidin-5(6H)-one], for which the half-maximal inhibitory concentration (IC50) lay within 1000 to 10000 nM.

`COc1ccc(Cn2c(=O)n3ncnc3c3cc(CN4CCN(S(C)(=O)=O)CC4)cnc32)cc1` [Example 252, 6-(4-methoxybenzyl)-9-((4-(methylsulfonyl)piperazin-1-yl)methyl)pyrido[3,2-e][1,2,4]triazolo[1,5-c]pyrimidin-5(6H)-one]: the half-inhibitory concentration (IC50) was in the range of 100 to 1000 nM.

`COc1ccc(Cn2c(=O)n3ncnc3c3cc(CN4CCN(C(=O)C(F)(F)F)CC4)cnc32)cc1` [Example 254] registered a concentration for half-maximal inhibition (IC50) of 100 to 1000 nM.

Compound `COc1ccc(Cn2c(=O)n3ncnc3c3cc(CN4CCN(C(=O)C5CCOC5)CC4)cnc32)cc1` (stereo not shown) [Example 255] registered a 50% inhibitory concentration (IC50) of 100 to 1000 nM.

Regarding `COc1ccc(Cn2c(=O)n3ncnc3c3ccc(CN4CCOCC4)nc32)cc1` [Example 256, 6-(4-Methoxybenzyl)-8-(morpholinomethyl)pyrido[3,2-e][1,2,4]triazolo[1,5-c]pyrimidin-5(6H)-one], the half-inhibitory concentration (IC50) lay within 1000 to 10000 nM.

In turn, `COc1ccc(Cn2c(=O)n3ncnc3c3ccc(CN4C[C@@H](C)O[C@@H](C)C4)nc32)cc1` [Example 257] had an IC50 of 100 to 1000 nM.

Regarding `COc1ccc(Cn2c(=O)n3ncnc3c3ccc(CNCC4(C)COC4)nc32)cc1` [Example 258], the IC50 lay in the range of 1000 to 10000 nM.

`COc1ccc(Cn2c(=O)n3ncnc3c3ccc(CN(C)CC4CCOC4)nc32)cc1` (stereo not shown) [Example 259] displayed a concentration for half-maximal inhibition (IC50) of 100 to 1000 nM.

`COc1ccc(Cn2c(=O)n3ncnc3c3ccc(CN(C)C4CC4)nc32)cc1` [Example 260] gave a 50% inhibitory concentration (IC50) of 100 to 1000 nM.

The compound `COc1ccc(Cn2c(=O)n3ncnc3c3ccc(CN4CCN(S(C)(=O)=O)CC4)nc32)cc1` [Example 261] returned a half-maximal inhibitory concentration (IC50) of 100 to 1000 nM.

As for `COc1ccc(Cn2c(=O)n3ncnc3c3ccc(CNCc4ccccc4)nc32)cc1` [Example 262], the half-maximal inhibitory concentration (IC50) fell in the range of 100 to 1000 nM.

As for `COc1ccc(Cn2c(=O)n3ncnc3c3ccc(CNc4ccccc4)nc32)cc1` [Example 263], the IC50 was in the range of 100 to 1000 nM.

`COc1ccc(Cn2c(=O)n3ncnc3c3ccc(CN4Cc5ccccc5C4)nc32)cc1` [Example 264] gave an IC50 of 100 to 1000 nM.

The same assay, now with this note: negative log of half-maximal molar inhibitory concentration; 200 nM FAM-cAMP, Calmodulin, CaCl2.
As for `COc1ccc(Cn2c(=O)n3ncnc3c3cc(CN4C[C@@H](C)O[C@@H](C)C4)cnc32)cc1` [Example 220], the “PDE1B pIC50” value was above 7.

Take `CCC1CN(Cc2cnc3c(c2)c2ncnn2c(=O)n3Cc2ccc(OC)cc2)CCO1` (stereo not shown) [Example 224]: the “PDE1B pIC50” value is above 7.

For the compound `COc1ccc(Cn2c(=O)n3ncnc3c3cc(CN4CC(C)OCC4C)cnc32)cc1` (stereo not shown) [Example 225], the “PDE1B pIC50” value is above 7.

For the compound `COc1ccc(Cn2c(=O)n3ncnc3c3cc(CN4CCC5(CCOCC5)N4C)cnc32)cc1` [Example 228], the “PDE1B pIC50” value is above 7.

Consider `COc1ccc(Cn2c(=O)n3ncnc3c3cc(CN4CCOC(C)C4)cnc32)cc1` (stereo not shown) [Example 229], for which the “PDE1B pIC50” value is recorded as above 7.

In the case of `COc1ccc(Cn2c(=O)n3ncnc3c3cc(CN4CCN5C(=O)OCC5C4)cnc32)cc1` (stereo not shown) [Example 246], the “PDE1B pIC50” value is given as above 7.

Take `COc1ccc(Cn2c(=O)n3ncnc3c3cc(CN4C[C@H](C)OC[C@@H]4C)cnc32)cc1` [Example 247]: the “PDE1B pIC50” value was above 7.

Take `COc1ccc(Cn2c(=O)n3ncnc3c3cc(CN4CCN(S(=O)(=O)N(C)C)CC4)cnc32)cc1` [Example 253]: the “PDE1B pIC50” value is recorded as above 7.

For the origin of these results see patent US10105367B2, “Therapeutic thiophene-, furan-, and pyridine-fused azolopyrimidin-5-(6h)-ones” (Dart Neuroscience (Cayman) Ltd., priority 2012, dated 2018).
